# Legend:
# RAW264.7 [1] = assay: Anti-inflammatory activity against mouse RAW264.7 cells assessed as inhibition of LPS-induced NO production pre-incubated for 1 hr followed by compound addition and measured after 18 hrs by Griess reagent based analysis; type: functional, cell-based
# [2] = target: T1, Inhibitor of nuclear factor kappa-B kinase subunit beta (Homo sapiens) (UniProt O14920); assay: Inhibition of IKKbeta phosphorylation in high glucose-induced HUVEC cells at 0.1 uM relative to control; type: cell-based
# T1 sequence (whole entry): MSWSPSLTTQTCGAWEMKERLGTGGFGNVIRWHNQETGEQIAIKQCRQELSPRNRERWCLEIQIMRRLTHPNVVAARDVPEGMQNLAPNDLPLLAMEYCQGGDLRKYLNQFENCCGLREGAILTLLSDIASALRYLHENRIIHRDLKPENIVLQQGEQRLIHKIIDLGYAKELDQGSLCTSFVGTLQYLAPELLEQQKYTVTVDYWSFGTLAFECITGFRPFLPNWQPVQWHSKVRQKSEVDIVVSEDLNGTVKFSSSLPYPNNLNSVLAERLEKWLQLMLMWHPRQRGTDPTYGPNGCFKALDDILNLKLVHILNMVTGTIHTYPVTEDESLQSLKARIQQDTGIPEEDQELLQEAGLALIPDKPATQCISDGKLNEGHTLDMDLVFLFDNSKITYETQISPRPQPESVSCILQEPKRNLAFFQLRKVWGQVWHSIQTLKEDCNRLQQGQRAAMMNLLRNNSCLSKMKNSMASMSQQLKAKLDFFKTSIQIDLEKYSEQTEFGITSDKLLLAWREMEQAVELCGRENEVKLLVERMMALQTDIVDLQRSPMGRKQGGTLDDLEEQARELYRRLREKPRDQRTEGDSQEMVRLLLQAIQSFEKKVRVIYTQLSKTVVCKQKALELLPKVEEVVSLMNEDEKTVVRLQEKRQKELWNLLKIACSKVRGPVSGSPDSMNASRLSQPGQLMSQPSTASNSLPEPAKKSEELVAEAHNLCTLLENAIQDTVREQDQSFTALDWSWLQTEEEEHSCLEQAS
# [3] = tested on: Rat aortic endothelial cell; assay: Inhibition of NF-kappaB p65 phosphorylation in high glucose-induced Rat aortic endothelial cell at 10 uM relative to control; type: cell-based
# [4] = tested on: Rat aortic endothelial cell; assay: Inhibition of NF-kappaB p65 phosphorylation in high glucose-induced Rat aortic endothelial cell at 1 uM relative to control; type: cell-based
# [5] = target: T1, Inhibitor of nuclear factor kappa-B kinase subunit beta (Homo sapiens); assay: Inhibition of IKKbeta phosphorylation in high glucose-induced HUVEC cells at 1 uM relative to control; type: cell-based
# [6] = tested on: Rat aortic endothelial cell; assay: Inhibition of NF-kappaB p65 phosphorylation in high glucose-induced Rat aortic endothelial cell at 0.1 uM relative to control; type: cell-based
# [7] = target: T1, Inhibitor of nuclear factor kappa-B kinase subunit beta (Homo sapiens); assay: Inhibition of IKKbeta phosphorylation in high glucose-induced HUVEC cells at 10 uM relative to control; type: cell-based
# Rattus norvegicus [8] = assay: Anti-inflammatory activity against LPS-induced paw edema in Sprague-Dawley rat assessed as inhibition of paw edema; type: functional
# Mus musculus [9] = assay: Anti-inflammatory activity in mouse model of xylene-induced auricle edema assessed as inhibition of ear swelling at 200 mg/kg, IG pre-treated for 1 hr followed by xylene addition and measured after 1 hr relative to control; type: functional; set-up: scale not given: the % may be the effect or the level left
# Rattus norvegicus [10] = assay: Anti-inflammatory activity in LPS-induced Sprague-Dawley rat assessed as reduction in TNF-alpha level at 20 mg/kg, po pre-incubated for 1 hr with compound followed by LPS-stimulation measured for 24 hrs by ELISA analysis; type: functional; set-up: scale not given: the % may be the effect or the level left; conditions: time 25 hrs
# RAW264.7 [11] = assay: Antiinflammatory activity against mouse RAW264.7 cells assessed as inhibition of LPS-stimulated IL-1beta level by ELISA method; type: functional, cell-based
# RAW264.7 [12] = assay: Anti-inflammatory activity against mouse RAW264.7 cells assessed as inhibition of IL-1beta level incubated for 18 hrs by ELISA analysis; type: functional, cell-based; conditions: RAW264.7, 18 h
# J774.A1 [13] = assay: Antiinflammatory activity against mouse J774.A1 cells assessed as inhibition of LPS-stimulated IL-1beta level by ELISA method; type: functional, cell-based
# RAW264.7 [14] = assay: Antiinflammatory activity against mouse RAW264.7 cells assessed as inhibition of LPS-stimulated TNF-alpha level by ELISA method; type: functional, cell-based
# RAW264.7 [15] = assay: Anti-inflammatory activity against mouse RAW264.7 cells assessed as inhibition of TNF-alpha production incubated for 18 hrs by ELISA analysis; type: functional, cell-based; conditions: RAW264.7, 18 h
# J774.A1 [16] = assay: Antiinflammatory activity against mouse J774.A1 cells assessed as inhibition of LPS-stimulated TNF-alpha level by ELISA method; type: functional, cell-based; conditions: Mus musculus, J774.A1; read-out: IC50
# Rattus norvegicus [17] = assay: Anti-inflammatory activity in LPS-induced Sprague-Dawley rat assessed as reduction in IL-1beta level at 20 mg/kg, po pre-incubated for 1 hr with compound followed by LPS-stimulation measured for 24 hrs by ELISA analysis; type: functional; set-up: scale not given: the % may be the effect or the level left; conditions: time 25 hrs
# Mus musculus [18] = assay: Anti-inflammatory activity against TPA-induced mouse ear edema model assessed as inhibition of ear edema at 1 uM relative to control; type: functional; set-up: scale not given: the % may be the effect or the level left
# RAW264.7 [19] = assay: Anti-inflammatory activity in LPS-stimulated mouse RAW264.7 cells assessed as inhibition of NO production by Griess reagent based assay; type: functional, cell-based
# RAW264.7 [20] = assay: Anti-inflammatory activity in LPS-stimulated mouse RAW264.7 cells assessed as inhibition of NO production by Griess reagent based analysis; type: functional, cell-based
# RAW264.7 [21] = assay: Anti-inflammatory activity in LPS-stimulated mouse RAW264.7 cells assessed as reduction in NO production incubated for 24 hrs by Griess reagent based assay; type: functional, cell-based; conditions: RAW264.7, 24 h
# RAW264.7 [22] = assay: Anti-inflammatory activity in mouse RAW264.7 cells assessed as inhibition of LPS-induced TNF-alpha production at 50 microg/ml relative to control; type: functional; set-up: scale not given: the % may be the effect or the level left; conditions: dose 50 µg/ml
# RAW264.7 [23] = assay: Anti-inflammatory activity in mouse RAW264.7 cells assessed as inhibition of LPS-induced IL-6 production at 50 microg/ml relative to control; type: functional; set-up: scale not given: the % may be the effect or the level left; conditions: dose 50 µg/ml
# RAW264.7 [24] = assay: Anti-inflammatory activity against mouse RAW264.7 cells assessed as inhibition of LPS-induced NO production pre-treated with compound for 1 hr followed by LPS-stimulation and measured for 1 hr; type: functional, cell-based
# Neutrophil = assay: Inhibition of fMLP-induced cell migration in human neutrophil; type: functional, cell-based
compound,measurement,setting,value
CC(C)=CCC/C(C)=C/Cc1c(C2CC(=O)c3c(cc(O)c(CC=C(C)C)c3O)O2)ccc(O)c1O (stereo not given),IC50,RAW264.7 [1],2.4 µM
COc1c(O)cc2oc(-c3ccc(O)cc3)cc(=O)c2c1O,inhibition,[2],23.2%
same,inhibition,[3],93.2%
same,inhibition,[4],57.4%
same,inhibition,[5],53.6%
same,inhibition,[6],26.1%
same,inhibition,[7],88.4%
COc1ccc(-c2cc(=O)c3c(O)c(OC)c(O)cc3o2)cc1OC [EUPATILIN],ID50,Rattus norvegicus [8],0.28 umol/cm2
CC(=O)Oc1ccccc1C(=O)O [ASPIRIN],Activity,Mus musculus [9],41.07%
COc1cc(O)c2c(c1)OC(c1ccccc1)CC2=O (stereo not given),Activity,Rattus norvegicus [10],48.6%
same,IC50,RAW264.7 [11],17.3 µM
same,IC50,RAW264.7 [12],40 µM
same,IC50,J774.A1 [13],19.6 µM
same,IC50,RAW264.7 [14],23.5 µM
same,IC50,RAW264.7 [15],< 22 µM
same,IC50,J774.A1 [16],37.5 µM
same,Activity,Rattus norvegicus [17],53.1%
O=c1c(O)c(-c2ccccc2)oc2cc(O)cc(O)c12 [GALANGIN],Activity,Mus musculus [18],27.7%
COc1cc(-c2cc(=O)c3c(O)cc(O)cc3o2)cc(OC)c1O [TRICIN],IC50,RAW264.7 [19],46.4 µM
same,IC50,RAW264.7 [20],28 µM
O=c1cc(-c2ccc(O)c(O)c2)oc2cc(O)cc(O)c12 [LUTEOLIN],IC50,RAW264.7 [21],1.2 µM
same,Activity,RAW264.7 [22],38%
same,Activity,RAW264.7 [23],37%
CC(C)=CCC/C(C)=C/Cc1c(O)ccc2c1O[C@H](c1ccc(O)cc1)CC2=O,IC50,RAW264.7 [24],8.13 µM
COc1cc(O)c2c(=O)cc(-c3ccccc3)oc2c1 [TECHTOCHRYSIN],IC50,Neutrophil,1.77 µM

# Reference: ChEMBL document CHEMBL5543059, “Discovery of anti-inflammatory natural flavonoids: Diverse scaffolds and promising leads for drug discovery” (Eur J Med Chem, 2023)
